According to US10398720B2, “Compound of the avermectin family or of the milbemycin family for the treatment and/or prevention of atopic dermatitis” (GALDERMA SA, priority 2013, dated 2019):

Tested on: Der f-induced AD mouse model
Assay: Dermatophagoides farinae (Der f)-induced atopic dermatitis (AD)-like mouse model, topical route
Format: in vivo, Balb/c mice
Details: for cytokine concentration / production (IL-10, IL-13, IL-17, IL-4, IL-5, IFNg; FIG. 5): 0.1% ivermectin; for inflammatory response induced by Der f application: topical daily day 19 to day 36, solutions in acetone, ivermectin 0.003-0.1%; for ear edema (ear thickness, FIG. 1): topical daily day 19 to day 36
Procedure: 1.1. […] Der f has been purchased from Greer Laboratories and a Der f solution has been prepared at 12.5 mg/ml in 70% DMSO in MilliQ water. […] Balb/c mice strain has been used for the study. These animals have been obtained from controlled breeding and were specific pathogen free. The animals have been provided by Janvier SAS, France. AD-like lesions have been induced once a week by topical application of 20 μl of Der f solution on the right ear for 5 weeks at […], day 29 and day 36. Mice have been daily treated from day 19 to day 36 with the different solutions administrated by the topical route. Measurement of ear thickness have been monitored before and 24 hours after each allergen application. After day 19, ears have been daily measured before compound application. Blood samples have been collected into appropriate vials under isoflurane anaesthesia for further analysis (IgE). Mice have been then immediately euthanized. After mouse euthanasia, the right ear has been collected and has been washed in ethanol 70% and has been rinsed in PBS. Three skin biopsies have then been collected for cytokines profiles, eosinophil peroxidase (EPO) quantification and histological slides in order to quantify the mastocytes and in order to measure the epidermis thickness.

[1] = histological slides, 0.05% triamcinolone acetonide, ivermectin 0.003, 0.01, 0.03 and 0.1%
[2] = right ear skin biopsy, 0.05% triamcinolone acetonide, 0.1% tacrolimus
[3] = 0.05% triamcinolone acetonide, 0.1% tacrolimus
[4] = 0.05% triamcinolone acetonide, 0.1% tacrolimus, ivermectin 0.003, 0.01, 0.03 and 0.1%

Row | Compound | IgE secretion (total seric IgE, FIG. 4) (blood sample, 0.05% triamcinolone acetonide, ivermectin 0.003, 0.01, 0.03 and 0.1%) | epidermal thickness (FIG. 2) [1] | mastocyte count (within the dermis, FIG. 6) [1] | dose response of the anti-inflammatory activity (ivermectin 0.003 to 0.1% topical) | anti-inflammatory response, higher concentrations (ivermectin 0.01, 0.03 and 0.1% topical, compared with 0.003%) | inflammatory response, compared with positive controls (ivermectin at 0.003% topical vs triamcinolone acetonide at 0.05% and tacrolimus at 0.1%) | EPO (eosinophil peroxidase, FIG. 3) (right ear skin biopsy, 0.05% triamcinolone acetonide, ivermectin 0.003, 0.01 and 0.03%) | cytokine concentration / production (IL-10, IL-13, IL-17, IL-4, IL-5, IFNg; FIG. 5) [2] | inflammatory response induced by Der f application [3] | ear edema (ear thickness, FIG. 1) [4] | interleukin IL-17 production (FIG. 5) (right ear skin biopsy, 0.1% tacrolimus)
1 | Ivermectin | significantly decreases | lessens | lessens | inverse dose response | less potent than the weakest concentration (0.003%) | to the same extent as triamcinolone acetonide at 0.05% and as tacrolimus at 0.1% | significantly decreases | significantly decreases | able to reduce | significantly decreases | 
2 | C=CC[C@@H]1/C=C(\C)C[C@H](C)C[C@H](OC)[C@H]2O[C@@](O)(C(=O)C(=O)N3CCCC[C@H]3C(=O)O[C@H](/C(C)=C/[C@@H]3CC[C@@H](O)[C@H](OC)C3)[C@H](C)[C@@H](O)CC1=O)[C@H](C)C[C@@H]2OC [tacrolimus] |  |  |  |  |  |  |  | totally reduces | completely inhibit | totally reduces | totally reduces
